≈ marks a conversion by molar mass, not a printed value.

One data set has as its target T1, StOASS-A (Salmonella typhimurium, UniProt P0A1E3).
T1 construct: His-tag (with TEV site) (cleaved yes); made in house; host or cells: E. coli Rosetta (DE3)
As to the kind of experiment: Fluorescence binding assay on purified recombinant StOASS-A. Details: species or system S. Typhimurium. The following applies: 20 °C, 100 mM HEPES, 5% DMSO, pH 7.0; racemic mixture; esters tested up to 100 μM. The procedure: (§1) The affinity of the compounds for StOASS-A and StOASS-B was determined on the purified recombinant proteins by an in vitro fluorescence binding assay. Measurements were carried out at 20 °C in a 3 mm pathlength quartz microcuvette in 100 mM HEPES, 5% DMSO (Applichem, Darmstadt, Germany), pH 7.0, using a Fluoromax-4 (Horiba Jobin-Yvon, Kyoto, Japan) spectrofluorometer. Emission spectra of solutions containing 0.2–1.0 μM StOASS, upon excitation of the pyridoxal 5′-phosphate cofactor at 412 nm, in the presence of increasing concentrations of compounds were collected; fluorescence intensities at 500 nm were plotted to compound concentration and data were fitted to a binding isotherm: I=I0+ΔI·compound/KD+compound where I is the fluorescence emission intensity at 500 nm in the presence of a given concentration of compound, I0 is the initial fluorescence emission in the absence of ligands, ΔI is the amplitude of the fluorescence emission change and KD is the dissociation constant. When the KD was lower than the protein concentration, data were fitted to the quadratic equation: I=I0+ΔI·OASS+compound+KD−OASS+compound+KD^2−4·OASS·compound/2
(§2) Data were collected in duplicate.
(§3) Esters were tested up to a concentration of 100 μM and no binding was observed.

Another data set deals with T2, StOASS-B (Salmonella typhimurium, UniProt P29848).
T2 construct: His-tag (with TEV site) (cleaved yes); made in house; host or cells: E. coli Rosetta (DE3)
T2 sequence (P29848 1-303): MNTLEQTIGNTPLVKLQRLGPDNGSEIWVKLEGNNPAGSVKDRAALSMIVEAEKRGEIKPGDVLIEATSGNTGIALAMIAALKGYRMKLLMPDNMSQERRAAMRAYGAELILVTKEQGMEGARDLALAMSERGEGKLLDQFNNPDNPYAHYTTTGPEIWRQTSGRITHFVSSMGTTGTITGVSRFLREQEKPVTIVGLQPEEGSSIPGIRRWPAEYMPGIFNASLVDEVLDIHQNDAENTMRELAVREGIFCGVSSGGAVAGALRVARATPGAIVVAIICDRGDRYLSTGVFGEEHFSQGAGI
In words: Fluorescence binding assay on purified recombinant StOASS-B. To be noted: 20 °C, 100 mM HEPES, 5% DMSO, pH 7.0; racemic mixture; esters tested up to 100 μM. The procedure: as §1, §2, §3

Another data set deals with E. coli ATCC 25922. As to the kind of experiment: MIC by broth microdilution, E. coli. The data set is classed as cell-based, Escherichia coli. The following applies: compound alone, MHB, 24 h at 37 °C; for MIC: Escherichia coli, ATCC25922, read-out: MIC (μg/mL) E.coli ATCC 25922. The procedure: (§4) MIC values were evaluated following CLSI guidelines with some modifications, as referred to in previous work. Twofold dilutions 25.6–0.05 mg/mL of the tested compounds were performed in DMSO in separate 96-well microtiter U-plates (Greiner, Milan, Italy). In a different 96-well microtiter U-plate, for each well of the replicates, 49 µL of broth medium were added. Then, in each well of the plate, one microliter of each compound at variable dilution in DMSO was added. For each test, three independent experiments with three replicates each were performed. Tested reference bacterial strains (E. coli ATCC25922; S. Typhimurium ATCC14028; K. pneumoniae ATCC13883) were brought to the logarithmic phase of growth in MHB medium by incubation at 37 °C for 24 h. After incubation, bacterial suspensions were centrifuged (2000 rpm, 4 °C for 20 min), and then the pellets were resuspended in 100 mM phosphate buffer, pH 7.0, to reach a final bacterial concentration of 10^8 CFU/mL, adjusted by spectrophotometry (OD620nm ranged between 0.08–0.13). The obtained suspensions were further diluted 1:100 in broth medium to reach a bacterial concentration of 10^6 CFU/mL. Fifty µL of the bacterial suspension containing 10^6 CFU/mL were inoculated into each well within 30 min, to obtain a final concentration of 5 × 10^5 CFU/mL in a total volume of 100 µL. The final dilution range tested was 256–0.5 µg/mL. Growth and sterility controls were performed for each strain and for each tested compound. Plates were then incubated for 24 h at 37 °C in a static aerobic atmosphere. After incubation, plates were read by unaided eye with a microtiter reading mirror and then the OD of each well of the plates was measured spectrophotometrically at 620 nm. MIC values were calculated as the arithmetic mean ± standard deviation (SD) of the unaided eye reading and the inhibition of growth for each tested dilution was calculated from the OD values (mean ± SD). A quality control microorganism (E. coli ATCC 25922) was tested periodically to validate the accuracy of the procedure.
(In general: Broth dilution looks for growth in wells or tubes with falling amounts of substance.)

For another data set, the system named is S. Typhimurium ATCC14028. In words: MIC by broth microdilution, S. Typhimurium. The following applies: compound alone, MHB, 24 h at 37 °C; for MIC: Salmonella enterica, read-out: MIC (μg/mL) S. Typhimurium ATCC14028. In kind it is cell-based, Salmonella enterica serovar Typhimurium. The procedure: as §4
The subject of another data set is K. pneumoniae ATCC13883. As to the kind of experiment: MIC by broth microdilution, K. pneumoniae. The following applies: compound alone, MHB, 24 h at 37 °C; for MIC: Klebsiella pneumoniae, ATCC13883, read-out: MIC (μg/mL) K. pneumoniae ATCC13883. In kind it is cell-based, Klebsiella pneumoniae. The protocol: as §4
The subject of the next data set is MDBK cells. As to the kind of experiment: Cytotoxicity assay (MTT) on MDBK cells. To be noted: 32, 16, 8 µg/mL; MTT test. The data set is classed as cell-based, bovine. The protocol:
The cytotoxicity assay was performed using the 3-(4,5-dimethylthiazol-2-yl)-2,5-diphenyltetrazolium bromide (MTT) test, following the procedure used by Donofrio et al.. MDBK cells were cultured on microtiter tissue culture plates in DMEM medium for 24 h at 37 °C in the presence of 5% CO2. After incubation, when the cell monolayer was at confluence, an aliquot of 1 µL of UPAR415 in DMSO at different concentrations was added in each well, containing a volume of 100 µL of DMEM medium and MDBK cells, and then the plates were reincubated at the same conditions. After incubation, 10 µL of MTT at 200 mg/mL (3-(4,5-dimethylthiazol-2-yl)-2,5-diphenyltetrazolium bromide) was added to each well and incubated at 37 °C for 6 h. At the end of the incubation, 100 µL of the solubilization solution (10% SDS in 0.01 M HCl) was added to each well and then incubated overnight. The MTT compound, a yellow tetrazolium salt, is reduced by mitochondrial enzymes (succinate dehydrogenase) of metabolically active eukaryotic cells to insoluble formazan crystals. In the presence of metabolically active cells, after the addition of a detergent solution (10% SDS in […]) that allows the formazan to be released from the cells, a violet color is seen in the medium. Instead, in the presence of non-viable cells, MTT is not reduced to formazan and therefore the solution will remain yellow.
After incubation, plates were read with a spectrophotometer at 620 nm. Positive controls (PC)—without any compounds—and PCs with 1% DMSO were performed for each plate and three replicates for two independent experiments were performed for each assay.
(Tetrazolium assays rely on reduction of a dye to a coloured formazan, in cell work by metabolically active cells.)

T1 sequence (P0A1E3 whole entry): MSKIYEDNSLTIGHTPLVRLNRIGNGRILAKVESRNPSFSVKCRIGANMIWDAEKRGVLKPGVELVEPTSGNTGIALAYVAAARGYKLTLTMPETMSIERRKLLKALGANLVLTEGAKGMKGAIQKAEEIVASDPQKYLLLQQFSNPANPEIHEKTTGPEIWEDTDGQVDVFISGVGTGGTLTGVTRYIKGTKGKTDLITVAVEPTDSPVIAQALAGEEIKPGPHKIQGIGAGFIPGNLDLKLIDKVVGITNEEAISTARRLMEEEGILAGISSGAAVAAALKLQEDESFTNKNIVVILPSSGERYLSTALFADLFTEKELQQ

Regarding `CCOC(=O)[C@]1(Cc2ccc(C)cc2)C[C@H]1c1cccc(-c2cccc(F)c2)c1` (relative stereo) [Compound 8f, trans-ethyl 2-(3′-fluoro-[1,1′-biphenyl]-3-yl)-1-(4-methylbenzyl)cyclopropanecarboxylate], the “KD (μM) OASS-A” value at StOASS-A is given as “No binding”. In addition, on StOASS-B, the “KD (μM) OASS-B” value was “No binding”. The MIC with E. coli ATCC 25922, in the data set on S. Typhimurium ATCC14028 and in the data set on K. pneumoniae ATCC13883 was > 512 µg/mL throughout. For the same molecule, in the data set with MDBK cells, the “Toxicity on viability of MDBK cells” value is “proliferative effects”.

`CCOC(=O)[C@]1(Cc2ccc(C)cc2)C[C@H]1c1cccc(-c2cn[nH]c2)c1` (relative stereo) [Compound 8c, trans-ethyl 2-(3-(1H-pyrazol-4-yl)phenyl)-1-(4-methylbenzyl)cyclopropanecarboxylate]: the “KD (μM) OASS-A” value at StOASS-A was “No binding”. For the same molecule, on StOASS-B, the “KD (μM) OASS-B” value is recorded as “No binding”. In addition, the MIC with E. coli ATCC 25922, with S. Typhimurium ATCC14028 and in the data set with K. pneumoniae ATCC13883 was > 512 µg/mL throughout. Besides, the “Toxicity on viability of MDBK cells” value in the data set on MDBK cells is listed as “high toxicity profiles”.

Take `CCOC(=O)[C@]1(Cc2ccc(C)cc2)C[C@H]1c1cccc(N2CCN(C)CC2)c1` (relative stereo) [Compound 20j, trans-ethyl 1-(4-methylbenzyl)-2-(3-(4-methylpiperazin-1-yl)phenyl)cyclopropanecarboxylate]: the “KD (μM) OASS-A” value at StOASS-A was “No binding”. Further, at StOASS-B, the “KD (μM) OASS-B” value was “No binding”. The MIC in the data set on E. coli ATCC 25922, with S. Typhimurium ATCC14028 and in the data set with K. pneumoniae ATCC13883 was > 512 µg/mL in each case. Also, in the data set with MDBK cells, the “Toxicity on viability of MDBK cells” value is on record as “high toxicity profiles”.

Turning to `CCOC(=O)[C@]1(Cc2ccc(C)cc2)C[C@H]1c1cccc(-c2cc(O)cc(F)c2)c1` (relative stereo) [Compound 8e, trans-ethyl 2-(3′-fluoro-5′-hydroxy-[1,1′-biphenyl]-3-yl)-1-(4-methylbenzyl) cyclopropanecarboxylate], the “KD (μM) OASS-A” value at StOASS-A was “No binding”. The “KD (μM) OASS-B” value on StOASS-B is listed as “No binding”. Further, the MIC in the data set on E. coli ATCC 25922, in the data set with S. Typhimurium ATCC14028 and in the data set on K. pneumoniae ATCC13883 was > 512 µg/mL each time. Further, the “Toxicity on viability of MDBK cells” value in the data set on MDBK cells is “high toxicity profiles”.

For `CCOC(=O)[C@]1(Cc2ccc(C)cc2)C[C@H]1c1cccc(N2CCOCC2)c1` (relative stereo) [Compound 12g, trans-ethyl 1-(4-methylbenzyl)-2-(3-morpholinophenyl)cyclopropanecarboxylate], the “KD (μM) OASS-A” value at StOASS-A was “No binding”. Moreover, the “KD (μM) OASS-B” value on StOASS-B was “No binding”. For the same molecule, the MIC in the data set on E. coli ATCC 25922, in the data set on S. Typhimurium ATCC14028 and in the data set with K. pneumoniae ATCC13883 was > 512 µg/mL each time. Moreover, in the data set on MDBK cells, the “Toxicity on viability of MDBK cells” value is listed as “proliferative effects”.

Consider `CCOC(=O)[C@]1(Cc2ccc(C)cc2)C[C@H]1c1cccc(N2CCNCC2)c1` (relative stereo) [Compound 20i, trans-ethyl 1-(4-methylbenzyl)-2-(3-(piperazin-1-yl)phenyl)cyclopropanecarboxylate], for which the “KD (μM) OASS-A” value at StOASS-A is recorded as “No binding”. The “KD (μM) OASS-B” value at StOASS-B was “No binding”. Further, in the data set with E. coli ATCC 25922, the MIC was determined as 40 µg/mL (≈ 106 µM) and the “MIC (μg/mL) E.coli ATCC 25922” value is “measurable antimicrobial activity”. Further, in the data set with S. Typhimurium ATCC14028, the MIC stood at 36 µg/mL (≈ 95.1 µM) and the “MIC (μg/mL) S. Typhimurium ATCC14028” value is listed as “measurable antimicrobial activity”. For the same molecule, in the data set with K. pneumoniae ATCC13883, the MIC was 32 µg/mL (≈ 84.5 µM) and the “MIC (μg/mL) K. pneumoniae ATCC13883” value is listed as “measurable antimicrobial activity”. In addition, the “Toxicity on viability of MDBK cells” value in the data set on MDBK cells is given as “high toxicity profiles”.

Take `CCOC(=O)C1(Cc2ccc(C)cc2)CC1c1cccc(-c2c[nH]nc2C)c1` (stereo not drawn) [Compound 8b, ethyl 2-(3-(3-methyl-1H-pyrazol-4-yl)phenyl)-1-(4-methylbenzyl)cyclopropanecarboxylate]: on StOASS-A, the “KD (μM) OASS-A” value is listed as “No binding”. Also, the “KD (μM) OASS-B” value on StOASS-B was “No binding”. The MIC in the data set on E. coli ATCC 25922, with S. Typhimurium ATCC14028 and in the data set on K. pneumoniae ATCC13883 was > 512 µg/mL in each case. In addition, the “Toxicity on viability of MDBK cells” value in the data set on MDBK cells is on record as “high toxicity profiles”.

These data come from publication PMC9227781, “Inhibitors of O-Acetylserine Sulfhydrylase with a Cyclopropane-Carboxylic Acid Scaffold Are Effective Colistin Adjuvants in Gram Negative Bacteria” (Pharmaceuticals, 2022).
